Assay results taken from patent US12296018B2, “Albumin binding peptide-drug (AlBiPeD) conjugates and methods of making and using same” (priority 2018, dated 2025).
Where “and” joins values, the source holds several entries; their conditions need not be identical. Identical values can stand only once.

Experiments:
[1] = biological target: T1, mouse serum albumin (MSA) (Mus musculus, UniProt P07724); assay: Native-PAGE mobility shift with MSA; format: binding; settings: 1:1 molar ratio
T1 construct: purchased Sigma-Aldrich (St. Louis, MO)
T1 sequence (P07724 25-608): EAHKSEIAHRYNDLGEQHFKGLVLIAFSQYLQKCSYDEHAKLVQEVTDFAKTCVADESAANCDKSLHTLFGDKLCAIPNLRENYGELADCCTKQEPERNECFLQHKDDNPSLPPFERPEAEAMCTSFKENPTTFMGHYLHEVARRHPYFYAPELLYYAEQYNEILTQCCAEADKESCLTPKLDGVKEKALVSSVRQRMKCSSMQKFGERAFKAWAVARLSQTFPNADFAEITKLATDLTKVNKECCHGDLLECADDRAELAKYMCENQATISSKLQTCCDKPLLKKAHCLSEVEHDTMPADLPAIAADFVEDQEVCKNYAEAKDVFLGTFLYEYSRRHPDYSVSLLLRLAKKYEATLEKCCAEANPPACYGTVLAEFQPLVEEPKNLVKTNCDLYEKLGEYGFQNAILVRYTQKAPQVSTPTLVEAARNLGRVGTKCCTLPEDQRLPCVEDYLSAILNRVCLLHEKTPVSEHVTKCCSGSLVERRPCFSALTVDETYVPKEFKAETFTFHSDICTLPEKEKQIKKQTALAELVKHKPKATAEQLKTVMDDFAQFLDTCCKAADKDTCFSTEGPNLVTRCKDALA
Experimental: The gel was stained with SimplyBlue stain according to the manufacturer's instructions and imaged using the Gel Doc imaging system (Bio-Rad, Hercules, CA). Isothermal titration calorimetry was done using a standard volume Nano ITC from TA instruments (Lindon, Utah). […] The calorimetric data were analyzed by NanoAnalyze software (TA instruments, Lindon, UT) and were fit to an independent binding site model to compute the thermodynamic parameters including dissociation constant (KD), binding stoichiometry (n), enthalpy (ΔH), and entropy (ΔS).

MIA PaCa-2 cells = assay: In vitro cytotoxicity (MTS, 72 h) MIA PaCa-2; format: cell-based, human; settings: 72 h incubation, Dox Equiv. concentration
Experimental: In vitro cytotoxicity C26 murine colon carcinoma cells and three different pancreatic cancer cell lines, BxPC-3, AsPC-1, and MIA PaCa-2, were used to study the in vitro cytotoxicity of ABD-DOX and Dox. Cells were cultured and grown as monolayers at 37° C. with C02 in a humidified incubator and were passaged at ˜80% confluency using 0.05% trypsin-EDTA (Invitrogen, Carlsbad, CA). C26, BxPC-3, AsPC-1, and MIA PaCa-2 cells were seeded in 96-well plates (5,000 cells/well) and incubated overnight. Three-fold serial dilutions of drug were then added to the wells in triplicate and also to control wells (media with no cells) to correct for the background Dox absorbance. After 72 h treatment, 20 μL MTS reagent was added to each well and was incubated for 3 h at 37° C., and the absorbance at 490 nm was measured using a Victor3 plate reader (Perkin Elmer, Boston, MA). Cell viability (%) was defined as the percentage of the absorbance of the drug-treated cells relative to buffer-treated cells and IC50 values were determined using logistic non-linear regression analysis with GraphPad Prism software. The IC50 was defined as the Dox Equiv. concentration of formulations resulting in 50% growth inhibition compared with a negative control, buffer-treated cells.

[2] = Intravenous pharmacokinetics in healthy BALB/c mice
Experimental: Pharmacokinetics and biodistribution Pharmacokinetics and biodistribution experiments were performed to study the concentration of ABD-Dox in blood and tissues over time following intravenous (i.v.) administration. For the pharmacokinetic study, ABD-Dox and Dox in PBS and AlDox in 10 mM sodium phosphate, 5% D-(+)-glucose, pH 5.8 were injected at 5 mg Dox Equiv. per kg of body weight (BW) into healthy BALB/c mice. 10 μL blood samples were collected at 40 s, 15 min and 30 min, and 2, 4, 8, 24, 48, 72 and 96 h post injection and were diluted into heparinized PBS (1 kUmL^−1), and centrifuged at 4,000 rcf, 10 min, 4° C. to collect the plasma. 10 μL of the plasma samples were then diluted in 490 μL of acidified isopropanol (0.075 M HCl, 10% water) and incubated overnight at 4° C. For the biodistribution study, ABD-Dox and Dox in PBS were injected at 5 mg Dox Equiv.kg^−1 BW into C26 tumor-bearing BALB/c mice. At 2 h, 24 h, and 72 h post-injection, mice were sacrificed and tumor, heart, lung, liver, spleen, kidney and muscle tissues were dissected, weighed, homogenized in acidified isopropanol using a Mini-Beadbeater (Biospec, Bartlesville, OK) with 2 mm diameter zirconia beads for 1-2 min, and were incubated overnight at 4° C. Following overnight incubation in acidified isopropanol, plasma and tissue samples were centrifuged at 16,000 rcf, 4° C. for 10 min and the supernatants were loaded onto black 96-well plates in duplicate and the Dox fluorescence was measured using on a Victor3 microplate reader (Perkin Elmer, Waltham, MA) with fluorescence excitation at 485 nm and emission at 590 nm. Tissues were also dissected from three untreated mice, processed in the same manner, serially diluted, and loaded on the plates to prepare a standard curve of fluorescence intensity versus the weight for each tissue from which the background tissue fluorescence was calculated and subtracted for each sample. Serial dilution of free Dox in acidified isopropanol was used as standard to quantify the Dox concentration as […] per liter of plasma (μM) and as the percent of the injected dose per gram (% ID g^−1) in the tumor and other tissues. Plasma concentrations of Dox Equiv. of ABD-Dox versus time were fit to a two-compartment model using SAAM II software (SAAM Institute, Seattle, WA) and the elimination half-life and the area-under-curve were computed. The tissue concentration of Dox. Equiv. of ABD-Dox and free Dox at each time point were compared in GraphPad Prism software (GraphPad, San Diego, CA) by Student's t-test with P<0.05 considered statistically significant.

[3] = test system: MIA PaCa-2 pancreatic tumor xenografts; assay: In vivo tumor regression, MIA PaCa-2 xenograft model; design: species or system nude BALB/c mice
Experimental: In vivo tumor regression For in vivo tumor implantation, C26 cells at 5×10^5 cells in 30 μL Minimum Essential Medium (MEM) (Invitrogen, Carlsbad, CA) and MIA PaCa-2 cells at 2×10^6 cells in 50 μL 10:90 v/v MEM: Matrigel matrix (Corning Inc, Corning, New York) were inoculated in the right flank of normal and athymic nude BALB/c mice, respectively. Tumor cells were allowed to grow until the tumor volume, calculated as π/6×length×width^2, reached 75-100 mm^3 for C26 tumors and 100-125 mm^3 for MIA PaCa-2 tumors. Tumor bearing mice were then treated with ABD-Dox at 10 and 20 mg Dox Equiv.kg^−1 BW, AlDox at 20 mg Dox Equiv.kg^−1 BW, and free Dox at 10 mgkg^−1 BW. Tumor volumes and body weights were monitored for 100 days after treatment and mice displaying excessive tumor volume (>[…]), body weight loss (>15%), or ill health were euthanized. Tumor growth and survival data were analyzed by GraphPad Prism software. Survival curves were generated with the Kaplan-Meier method and compared with the log-rank (Mantel-Cox) test. Tumor growth data were compared with a paired one-way ANOVA followed by Tukey-Kramer (Tukey's) post-hoc test. P<0.05 was considered as statistically significant.
For in vivo tumor regression studies, a single dose of ABD-Dox was injected via tail vein at 10 mg Dox Equiv.kg^−1 BW (MTD of free Dox) and 20 mg Dox Equiv.kg^−1 BW (MTD of ABD-Dox) in separate cohorts of BALB/c mice with s.c. C26 tumors or nude mice with s.c. MIA Paca-2 tumors. Free Dox was injected at its MTD of 10 mgkg-1 BW, and AlDox was injected at 20 mg Dox Equiv.kg^−1 BW, a dose that was reported to be safe in previous studies. All animals were injected when the tumors were 75-100 mm; in size for C26 tumors and 100-125 mm^3 for MIA PaCa-2 tumors.

## ABD-Dox (GLAEAKVLANRELDKYGVSDYYKNLINNAKTVEGVKALIDEILAALPCGGCGGCGGCGG)
[1]
  binding to MSA by mobility shift: confirmed binding
MIA PaCa-2 cells
  IC50: 1.4 µM and 1.41 µM
[2]; 96 h after injection
  drug in plasma at late time point: detectable in plasma even 96 h after injection
[2]; i.v., 5 mg Dox Equiv. per kg BW, plasma
  Area under curve (total plasma exposure): 2263.6 ± 44.7 µM·h
[2]; i.v., 5 mg Dox Equiv. per kg BW, plasma, two-compartment model
  Elimination half-life: 29.4 ± 0.8 h and 29.4 h
[2]; mouse, in vivo
  area under the curve, fold higher than AlDox: 3 fold
[3]; 10 mg Dox Equiv.kg^−1 BW
  survival compared with free Dox: No significant difference
[3]; 20 mg Dox Equiv.kg^−1 BW
  survival compared with AlDox: No significant difference
  survival compared with free Dox: significantly longer survival
  tumor regression compared with AlDox: superior tumor regression efficacy
[3]; 20 mg Dox Equiv.kg^−1 BW, 100-day span
  tumor-free period compared with AlDox: longer tumor-free period
[3]; by day 15 after treatment, 20 mg Dox Equiv.kg^−1 BW
  mice showing tumor disappearance: all
[3]; throughout the 100 day course of study, 20 mg Dox Equiv.kg^−1 BW
  tumor recurrence in tumor-eradicated mice: 25%
